The results in this text go back to patent US4153710A, “N-(4-[2-(pyrazole-1-carbonamide)-ethyl]-benzenesulphonyl)-urea” (Starogardzkie Zaklady Farmaceutyczne POLFA, priority 1976, dated 1979).

SMILES strings stand for the structures. “And” between values parts separate entries of the source, which are not always exact repeats. Equal entries are not always repeated.

The test system of assay [1] is oxygen consumption in mitochondria of a rat's liver. Put plainly: Oxygen consumption of rat liver mitochondria. It counts as biochemical. As to the method: 2-oxoglutaran 2 mM, ADP 1 mM, mitochondria | protein 4 mg/m. […] The
Assay [2] concerns oxidizing phosphorylation in mitochondria of a rat's liver. Put plainly: Oxidizing phosphorylation of rat liver mitochondria. The class given is biochemical. On the procedure: 2-oxoglutaran 2 mM, ADP 1 mM, mitochondria | protein 4 mg/m. […] The | oxidizing phosphorylation speed was determined by means of the measuremen | of hydrogen ion consumption. The calcium transmission to mitochondria was […]

The subject of assay [3] is calcium transmission in mitochondria of a rat's liver. Description: Calcium transmission to rat liver mitochondria. The conditions noted are these: for % of inhibition, calcium transmission: medium with CaCl 300 nmoles/ml. The class given is biochemical. On the procedure: Sucrose 170mM, KCl 10 mM, MgCl2 […], K2 HPO 5 mM, EGTA 0.01 mM
2-oxoglutaran 2 mM, ADP 1 mM, mitochondria
protein 4 mg/m. Temperature 25° C.
of hydrogen ion consumption. The calcium transmission to mitochondria was
studied with two methods; in a continuous way with a Radiometer calcium
electrode type F2112 or with an isotopic method.
*The medium contained Ca Cl 300 nmoles/ml.

Assay [4] concerns blood-glucose concentration. Put plainly: Decrease in blood-glucose concentration in rats after oral dose (Table 1; ED30 rats Table 2). It counts as in vivo. The conditions noted are these: Rattus norvegicus, po; for inhibition in vivo at 1 mg/kg: p.os. 1 mg/kg; for inhibition in vivo at 2 mg/kg: p.os. 2 mg/kg; for inhibition in vivo at 4 mg/kg: p.os. 4 mg/kg; for ED50: p.os., Table 1; for inhibition in vivo at 10 mg/kg: p.os. 10 mg/kg. The text has this:
The hypoglycemic activity of N-{4-[2-(pyrazole-1-carbonamide)-ethyl]-benzenesulphonyl}-ureas prepared according to the present invention can be noticed after their oral administration to mice, rats, rabbits and people and when determining the glucose concentration in blood with a known enzymatic method using glucose oxidase.
The exemplary comparison of effective doses (ED30) and the effect of oral dose size of the compounds prepared according to the present invention with Glibornuride, which is distinguished by its high effectiveness and good tolerance when administered to people, on the glucose concentration in the blood of rats, is given in Table 1.

What is called Ki is a measure of affinity in units of concentration, obtained from inhibition or displacement. The inhibition in vivo is the change of the read-out against control, counted positive when it falls. Broadly, the ED50 is the dose at which the effect has come halfway, by size or by number of responders.

For the molecule `CCCCNC(=O)NS(=O)(=O)c1ccc(C)cc1` [Tolbutamide], the “% of inhibition, oxygen consumption” value in assay [1] (concentration 1.0 n M) stood at 14%. For the same molecule, in assay [2] (concentration 1.0 n M), the “% of inhibition, oxidizing phosphorylation” value worked out at 7%. For the same molecule, in assay [3] (concentration 1.0 n M), the “Calcium transmission / Oxide consumption (ratio of inhibition)” value worked out at 1.92 and the “% of inhibition, calcium transmission” value was determined as 27%. Besides, the “preference of inhibition: calcium transmission versus oxidizing processes” value in assay [3] (rat liver mitochondria) is “preferential inhibiting of calcium transmission”.
In the case of `COc1ccc(Cl)cc1C(=O)NCCc1ccc(S(=O)(=O)NC(=O)NC2CCCCC2)cc1` [Glibenclamide], the “% of inhibition, oxygen consumption” value is 26% in assay [1] (concentration 0.01 n M); 43% in assay [1] (concentration 0.02 n M); 60% and 63% in assay [1] (concentration 0.05 n M); 75% in assay [1] (concentration 0.1 n M); 87% in assay [1] (concentration 0.5 n M). Also, the results for the Ki in assay [1] (rat liver mitochondria), in assay [2] (rat liver mitochondria) and in assay [3] (rat liver mitochondria) were 30 µM, 22 µM and 47 µM, respectively. In addition, the “% of inhibition, oxidizing phosphorylation” value in assay [2] (concentration 0.01 n M) turned out to be 29%; in assay [2] (concentration 0.02 n M) it was 48%; in assay [2] (concentration 0.05 n M), 60%; in assay [2] (concentration 0.1 n M) it was 80%; in assay [2] (concentration 0.5 n M), 100%. In addition, the “Calcium transmission / Oxide consumption (ratio of inhibition)” value in assay [3] (concentration 0.01 n M) was 0.46; in assay [3] (concentration 0.02 n M), 0.65; in assay [3] (concentration 0.05 n M), 0.82; in assay [3] (concentration 0.1 n M), 0.90; in assay [3] (concentration 0.5 n M) it was 0.97. In addition, the “% of inhibition, calcium transmission” value amounted to 12% in assay [3] (concentration 0.01 n M); 28% in assay [3] (concentration 0.02 n M); 52% in assay [3] (concentration 0.05 n M); 68% in assay [3] (concentration 0.1 n M); 85% in assay [3] (concentration 0.5 n M). Further, in assay [3] (rat liver mitochondria), the “preference of inhibition: calcium transmission versus oxidizing processes” value is “acts much stronger on oxidizing and phosphorylation processes than on the calcium transmission”. Further, the “Ki ratio SPC-5002 / Glibenclamide, calcium transmission” value in assay [3] (ratio of inhibitor constants) was determined as 10.
For `Cc1nn(C(=O)NCCc2ccc(S(=O)(=O)NC(=O)NC3CCCCC3)cc2)c(C)c1Cl` [compound 14], the inhibition in vivo at 1 mg/kg stood at 11% in assay [4] (1 h), 21% in assay [4] (3 h) and 7% in assay [4] (6 h). The inhibition in vivo at 2 mg/kg in assay [4] (1 h) is 14%; in assay [4] (3 h), 24%; in assay [4] (6 h) it was 14%. Moreover, the figures for the inhibition in vivo at 4 mg/kg in assay [4] (1 h), in assay [4] (3 h) and in assay [4] (6 h) were 21%, 29% and 11%, respectively. In addition, it took a dose of 5 mg/kg to reach the 50% effect level in assay [4] (ED50).
Turning to `O=C(NC1CCCC1)NS(=O)(=O)c1ccc(CCNC(=O)n2cccn2)cc1` [compound 15], the inhibition in vivo at 4 mg/kg in assay [4] (1 h) amounted to 14%; in assay [4] (3 h), 5%. The inhibition in vivo at 10 mg/kg in assay [4] (1 h) was 20%; in assay [4] (3 h) it was 16%; in assay [4] (6 h) it was 7%.
Consider `Cc1cc(C)n(C(=O)NCCc2ccc(S(=O)(=O)NC(=O)NC3CCCCC3)cc2)n1` [compound 6], for which the figures for the inhibition in vivo at 4 mg/kg in assay [4] (1 h), in assay [4] (3 h) and in assay [4] (6 h) were 18%, 33% and 23%, respectively. The inhibition in vivo at 10 mg/kg came to 23% in assay [4] (1 h), 40% in assay [4] (3 h) and 35% in assay [4] (6 h). Further, it took a dose of 3.5 mg/kg to reach the 50% effect level in assay [4] (ED50).
As for `Cc1ccn(C(=O)NCCc2ccc(S(=O)(=O)NC(=O)NC3CCCC3)cc2)n1` [compound 16], the values for the inhibition in vivo at 4 mg/kg in assay [4] (1 h) and in assay [4] (3 h) were 18% and 14%, respectively. In addition, the results for the inhibition in vivo at 10 mg/kg in assay [4] (1 h) and in assay [4] (3 h) were 16% and 20%, respectively.
